{"source": "patent US20110009335A1", "about": "“Anticancer Treatments” (priority 2008, published 2011)", "format_in_all_cases": "in vivo", "key": {"[1]": {"test_system": "CAKI-1 human renal tumor xenograft", "assay": "Aplidine with sorafenib, CAKI-1 xenograft in athymic nude mice (Example 1)", "procedure": "(§1) Female athymic nude mice (Harlan Sprague Dawley, Madison, Wis.) were utilized for all experiments. Mice were implanted with tumor fragments or a cell suspension when mice were 5 weeks of age. Animals were housed in ventilated rack caging, 5 mice per cage, with food and water ad libitum. The mice were acclimated for 1 week prior to being implanted with tumor fragments or cell suspensions.\n(§2) Tumor measurements were determined by using Vernier calipers. The formula to calculate volume for a prolate ellipsoid was used to estimate tumor volume (mm^3) from 2-dimensional tumor measurements: Tumor volume (mm^3)=[L×W^2]÷2, where L is the length and it is the longest diameter in mm, and W is the width and it is the shortest diameter in mm of a tumor. Assuming unit density, volume was converted to weight (i.e., 1 mm^3=1 mg).\n(§3) Body weights were recorded on treatment days and when tumor sizes were measured. In those days wherein the two drugs were administered the same day, the combination therapy groups were treated by co-administering the two drugs at the same time, with no attempt to sequence the treatments.\n(§4) Aplidine was provided in the form of vials of lyophilized aplidine powder which was reconstituted in Cremophor EL/ethanol/water (CEW) 15/15/70 to a concentration of 0.5 mg/ml. Then the aplidine solution in CEW was diluted in 0.9% Saline to the dosing formulation concentrations, being the final proportion of CEW of 0.18/0.18/0.84.\n(§5) Tumor size measurements were recorded twice weekly from the treatment initiation until the termination of the study.\n(§6) Mean, standard deviation and standard error of the mean were determined for tumor volume for all animal groups at all assessments. Student's t test was performed on tumor volumes at each measurement day, including at the end of the study, to determine whether there were any statistically significant differences between combination treatment groups and single monotherapy treatment groups.\n(§7) Determine the % of tumor growth inhibition, as 100−% T/C, for each of the drugs administered as monotherapy at the doses used in the combinations. % T/C was obtained by comparing the mean tumor weight in the treatment groups (T) to the mean tumor weight in the control group (C) (T/C×100%). • 2. The two scores were added together to determine the “expected response” if each agent produced the same response as it did when administered as monotherapy. • 3. This “expected response” was subtracted from the % of tumor growth inhibition determined for the combination therapy group: • a. A negative number meant that the effect of combining the two drugs was less than additive. • b. If the resulting number was close to zero, the effect of combining the two drugs was determined as additive. • c."}, "[2]": {"test_system": "A498 human renal tumor xenograft", "assay": "Aplidine with sorafenib, A498 xenograft in athymic nude mice (Example 1)", "procedure": "as §1\nA498 cells were grown in MEM, 2 mM L-glutamine and 10% FBS. Cells from in vitro passage 4-20 were implanted SC into study mice: 5×10^6 cells/mouse in 0.2 ml 50% Matrigel/50% medium without antibiotics or serum, using a 23 G needle and 1 cc syringe. Matrigel is a biological extracellular matrix that is liquid at 4° C. and solid at 37° C., and it promotes tumor growth by maintaining the cells in close association in a localized area. Bacterial cultures were performed on aliquots of the cells prepared for implantation.\nas §2, §3, §4, §5, §6, §7"}, "[3]": {"test_system": "LOX-IMVI human melanoma xenograft", "assay": "Aplidine with sorafenib, LOX-IMVI xenograft in athymic nude mice (Example 7)", "settings": "for % Inhibition G4: sorafenib 30 mg/kg/day; for % Inhibition G3: sorafenib 60 mg/kg/day", "excerpt": "Female athymic nude mice (Harlan Sprague Dawley, Madison, Wis.) were utilized for all experiments. Mice were implanted with a tumor fragment when mice were 6-8 weeks of age. Animals were housed in ventilated rack caging with food and water ad libitum. The mice were acclimated for at least 5 days prior to tumor implantation.\nThe tumor model used in this study was LOX-IMVI, which is a human melanoma cell line obtained from the Department of Developmental Therapeutics, National Cancer Institute (NCI). Animals were implanted subcutaneously (SC) on the right flank, using a 13 gauge trocar, with 2 mm^3 of tissue tumor fragments of LOX-IMVI, from an in vivo transplantable line passage 1, using sterile Earle's Balanced Salt solution as a wetting agent.\nTumor measurements were determined as disclosed in Example 1. When tumor growth was within an average size range of 130±44 mg (mean±SD), mice were randomized into the treatment and control groups based on tumor weight by using LabCat® In Life module V 8.0 SP1 tumor tracking and measurement software.\nThe treatment of LOX-IMVI-tumor-bearing mice was initiated on DPI (Day Post Implantation) 11. Body weights were recorded on treatment days and when tumor sizes were measured. In those days wherein the two drugs were administered the same day, the combination therapy groups were treated by co-administering the two drugs at the same time, with no attempt to sequence the treatments.\nAplidine was provided in the form of vials of lyophilized aplidine powder which was reconstituted in Cremophor EL/ethanol/water (CEW) 15/15/70 to a concentration of 0.5 mg/ml. The aplidine solution in CEW was diluted in 0.9% Saline to the dosing formulation concentrations, being the final proportion of CEW of 0.18/0.18/0.84.\nas §5, §6\nThe definition and criteria for the evaluation of potentiation and the degree of additivity for the combination therapy were the same as those disclose in Example 1."}, "[4]": {"settings": "aplidine 0.040 and/or sorafenib 30 mg/kg/day"}, "[5]": {"settings": "aplidine 0.060 and/or sorafenib 60 mg/kg/day"}}, "data": [{"smiles": "CNC(=O)c1cc(Oc2ccc(NC(=O)Nc3ccc(Cl)c(C(F)(F)F)c3)cc2)ccn1", "note": "[sorafenib]", "values": [{"measurement": "% T/C on day 7", "setting": "[1]; [4]", "value": 116.6, "unit": "%"}, {"measurement": "% T/C on day 9", "setting": "[1]; [4]", "value": 130.2, "unit": "%"}, {"measurement": "% T/C on day 13", "setting": "[1]; [4]", "value": 105.4, "unit": "%"}, {"measurement": "% T/C on day 21", "setting": "[1]; [4]", "value": 113.0, "unit": "%"}, {"measurement": "% T/C on day 23", "setting": "[1]; [4]", "value": 117.1, "unit": "%"}, {"measurement": "% T/C on day 28", "setting": "[1]; [4]", "value": 90.3, "unit": "%"}, {"measurement": "% T/C on day 31", "setting": "[1]; [4]", "value": 84.0, "unit": "%"}, {"measurement": "% T/C on day 34", "setting": "[1]; [4]", "value": 86.0, "unit": "%"}, {"measurement": "% T/C on day 37", "setting": "[1]; [4]", "value": 92.8, "unit": "%"}, {"measurement": "% T/C on day 41", "setting": "[1]; [4]", "value": 98.0, "unit": "%"}, {"measurement": "% T/C on day 44", "setting": "[1]; [4]", "value": 105.8, "unit": "%"}, {"measurement": "% T/C on day 49", "setting": "[1]; [4]", "value": 102.8, "unit": "%"}, {"measurement": "% T/C on day 7", "setting": "[1]; [5]", "value": 100.6, "unit": "%"}, {"measurement": "% T/C on day 9", "setting": "[1]; [5]", "value": 128.9, "unit": "%"}, {"measurement": "% T/C on day 13", "setting": "[1]; [5]", "value": 104.5, "unit": "%"}, {"measurement": "% T/C on day 21", "setting": "[1]; [5]", "value": 121.2, "unit": "%"}, {"measurement": "% T/C on day 23", "setting": "[1]; [5]", "value": 116.6, "unit": "%"}, {"measurement": "% T/C on day 28", "setting": "[1]; [5]", "value": 110.5, "unit": "%"}, {"measurement": "% T/C on day 31", "setting": "[1]; [5]", "value": 105.2, "unit": "%"}, {"measurement": "% T/C on day 34", "setting": "[1]; [5]", "value": 110.2, "unit": "%"}, {"measurement": "% T/C on day 37", "setting": "[1]; [5]", "value": 119.5, "unit": "%"}, {"measurement": "% T/C on day 41", "setting": "[1]; [5]", "value": 120.5, "unit": "%"}, {"measurement": "% T/C on day 26", "setting": "[2]; [4]", "value": 97.0, "unit": "%"}, {"measurement": "% T/C on day 29", "setting": "[2]; [4]", "value": 97.4, "unit": "%"}, {"measurement": "% T/C on day 33", "setting": "[2]; [4]", "value": 76.6, "unit": "%"}, {"measurement": "% T/C on day 36", "setting": "[2]; [4]", "value": 84.2, "unit": "%"}, {"measurement": "% T/C on day 40", "setting": "[2]; [4]", "value": 98.7, "unit": "%"}, {"measurement": "% T/C on day 43", "setting": "[2]; [4]", "value": 70.1, "unit": "%"}, {"measurement": "% T/C on day 47", "setting": "[2]; [4]", "value": 91.2, "unit": "%"}, {"measurement": "% T/C on day 50", "setting": "[2]; [4]", "value": 85.9, "unit": "%"}, {"measurement": "% T/C on day 54", "setting": "[2]; [4]", "value": 105.9, "unit": "%"}, {"measurement": "% T/C on day 61", "setting": "[2]; [4]", "value": 89.6, "unit": "%"}, {"measurement": "% T/C on day 26", "setting": "[2]; [5]", "value": 97.4, "unit": "%"}, {"measurement": "% T/C on day 29", "setting": "[2]; [5]", "value": 87.8, "unit": "%"}, {"measurement": "% T/C on day 33", "setting": "[2]; [5]", "value": 80.2, "unit": "%"}, {"measurement": "% T/C on day 36", "setting": "[2]; [5]", "value": 68.6, "unit": "%"}, {"measurement": "% T/C on day 40", "setting": "[2]; [5]", "value": 82.9, "unit": "%"}, {"measurement": "% T/C on day 43", "setting": "[2]; [5]", "value": 51.4, "unit": "%"}, {"measurement": "% T/C on day 47", "setting": "[2]; [5]", "value": 74.9, "unit": "%"}, {"measurement": "% T/C on day 50", "setting": "[2]; [5]", "value": 71.1, "unit": "%"}, {"measurement": "% T/C on day 54", "setting": "[2]; [5]", "value": 78.7, "unit": "%"}, {"measurement": "% T/C on day 61", "setting": "[2]; [5]", "value": 81.3, "unit": "%"}, {"measurement": "% T/C on day 11", "setting": "[3]; G3: sorafenib 60 mg/kg/day PO", "value": 98.6, "unit": "%"}, {"measurement": "% T/C on day 14", "setting": "[3]; G3: sorafenib 60 mg/kg/day PO", "value": 101.2, "unit": "%"}, {"measurement": "% T/C on day 18", "setting": "[3]; G3: sorafenib 60 mg/kg/day PO", "value": 77.7, "unit": "%"}, {"measurement": "% T/C on day 20", "setting": "[3]; G3: sorafenib 60 mg/kg/day PO", "value": 71.7, "unit": "%"}, {"measurement": "% T/C on day 22", "setting": "[3]; G3: sorafenib 60 mg/kg/day PO", "value": 64.8, "unit": "%"}, {"measurement": "% T/C on day 25", "setting": "[3]; G3: sorafenib 60 mg/kg/day PO", "value": 73.3, "unit": "%"}, {"measurement": "% T/C on day 14", "setting": "[3]; G4: sorafenib 30 mg/kg/day PO", "value": 96.9, "unit": "%"}, {"measurement": "% T/C on day 18", "setting": "[3]; G4: sorafenib 30 mg/kg/day PO", "value": 77.4, "unit": "%"}, {"measurement": "% T/C on day 20", "setting": "[3]; G4: sorafenib 30 mg/kg/day PO", "value": 75.9, "unit": "%"}, {"measurement": "% T/C on day 22", "setting": "[3]; G4: sorafenib 30 mg/kg/day PO", "value": 77.3, "unit": "%"}, {"measurement": "% T/C on day 25", "setting": "[3]; G4: sorafenib 30 mg/kg/day PO", "value": 93.4, "unit": "%"}, {"measurement": "antitumor activity as single agent (monotherapy)", "setting": "[3]; doses tested", "value": "inactive"}, {"measurement": "% Inhibition G4", "setting": "[3]; day 11", "value": "−2.1", "unit": "%"}, {"measurement": "% Inhibition G4", "setting": "[3]; day 14", "value": 3.1, "unit": "%"}, {"measurement": "% Inhibition G4", "setting": "[3]; day 18", "value": 22.6, "unit": "%"}, {"measurement": "% Inhibition G4", "setting": "[3]; day 20", "value": 24.1, "unit": "%"}, {"measurement": "% Inhibition G4", "setting": "[3]; day 22", "value": 22.7, "unit": "%"}, {"measurement": "% Inhibition G4", "setting": "[3]; day 25", "value": 6.6, "unit": "%"}, {"measurement": "% Inhibition G3", "setting": "[3]; day 11", "value": 1.4, "unit": "%"}, {"measurement": "% Inhibition G3", "setting": "[3]; day 14", "value": "−1.2", "unit": "%"}, {"measurement": "% Inhibition G3", "setting": "[3]; day 18", "value": 22.3, "unit": "%"}, {"measurement": "% Inhibition G3", "setting": "[3]; day 20", "value": 28.3, "unit": "%"}, {"measurement": "% Inhibition G3", "setting": "[3]; day 22", "value": 35.2, "unit": "%"}, {"measurement": "% Inhibition G3", "setting": "[3]; day 25", "value": 26.7, "unit": "%"}]}]}
